Experimental findings from US20080262041A1, “Beta-Lactams for Treatment of Cns Disorders” (priority 2003, published 2008) are described below.

Molecules are shown by their SMILES. pKi: −log10 of the molar value. Like-named read-outs stand apart in the source and are kept apart here.

In test [1] the target is T1, recombinant human serotonin transporter (Homo sapiens, UniProt P31645).
T1 construct: expressed in transfected cells; host or cells: porcine LLCPK cells stably transfected with hSERT (membranes)
The test is described as follows: hSERT binding affinity, displacement of [3H]-citalopram. The note with it: for Ki: average of at least two determinations, [3H]-citalopram, LLCPK cell membranes, read-out: pKi, serotonin transporter binding (converted). As to the method:
SERT binding affinity has been determined in vitro by the compounds' ability to displace [^3H]-citalopram from hSERT-LLCPK cell membranes. For the binding reaction, a final concentration of 0.25 nM of [^3H] citalopram (84 Ci/mmol, Amersham) was incubated with 3-5 μg/ml of cell membrane and the compound to be tested at different concentrations (7 concentration points in duplicate) in 50 mM Tris HCl, pH 7.7, containing 120 mM NaCl, 5 mM KCl, 10 μM pargyline and 0.1% ascorbic acid. The reaction was performed for 120 min at 22° C. and was terminated through GF/B Unifilter (pre-soaked in 0.5% PEI) using a Cell Harvester (Tomtec). Scintillation fluid was added to each filtered spot and radioactivity was determined using a scintillation counter (TopCount (Packard)). Non-specific binding was determined using paroxetine (10 μM) and represents about 2-5% of the total binding. Competition experiments were conducted with duplicate determination for each point. Msat601 software package was used to elaborate the competition binding data. IC50 values were converted to Ki values using the Cheng-Prusoff equation and by using the KD of [^3H]citalopram determined in separate experiments.
The affinity of the compounds of the invention for the serotonin transporter was determined using the hSERT binding affinity method and measuring in vitro the compounds' ability to displace [^3H]-citalopram from recombinant human serotonin transporter expressed in Porcine Epithelial Kidney LLCPK cell membranes. The affinity values are expressed as negative logarithm of the inhibition constant of displacer ligands (pKi).
A general note: Loss of bound radioactivity is the signal in a displacement assay; it reports binding, not function.

For test [2], the target named is T2, recombinant human NK1 receptors (Homo sapiens, UniProt P25103).
T2 construct: expressed in transfected cells; host or cells: CHO cells (membranes)
Briefly: NK1 receptor binding affinity, scintillation proximity assay (SPA), displacement of [125I]Tyr8-Substance P. Conditions: average of at least two determinations, CHO cell membranes, read-out: pKi (negative logarithm of the inhibition constant), NK1 receptor SPA binding (converted). From the text: NK1-receptor binding affinity has been determined in vitro in a binding Scintillation proximity assay (SPA) by measuring the compounds' ability to displace [^125I]Tyr8-Substance P (SP) from recombinant human NK1 receptors stably expressed in Chinese Hamster Ovary (CHO) cell membranes prepared by using a modification of the method described by Beattie D. T. et al. (Br. J. Pharmacol, 116:3149-3157, 1995). Briefly, polystyrene Leadseeker WGA-SPA beads (Amersham Biosciences) were mixed with cell membranes in a bead/membrane ratio of 50:1 (w/w) in assay buffer (75 mM Tris pH 7.8, 75 mM NaCl, 4 mM MnCl2, 1 mM EDTA, 0.05% Chaps, 1 mM PMSF). The mixture was placed on ice for 30 minutes to allow the formation of membrane/bead complex before BSA was added to a final concentration of 1%. After another 30 minutes incubation on ice, the bead/membrane complex was washed twice and suspended in assay buffer. [^125I]Tyr8-Substance P (2200 Ci/mmol, PerkinElmer) was then added to the bead/membrane complex with a final concentration of 0.4 nM. 30 ul of the resulting mixture was then dispensed to each well of Nalgen NUNC 384-well plate with 1 ul compound pre-dispensed in DMSO. The plates were then sealed and pulse centrifuged at 1100 rpm. After 3 hours incubation at room temperature with shaking, the plates were centrifuged for 2 min at 1100 rpm and measured in Viewlux imager (PerkinElmer) for 5 minutes with a 618-nm filter. Inhibition of [^125I]Tyr8-Substance P binding to NK1-receptors was measured by the reduction of luminescent signal. IC50 values of each compound were determined by an 11-point 3×-dilution inhibition curve. pKi values were calculated using the KD of [^125I]Tyr8-Substance P determined in a separate experiment.
The affinity of the compound of the invention for the NK1 receptor was determined using the NK1 receptor binding affinity method (Scintillation proximity assay (SPA)) measured in vitro by the compounds' ability to displace [^125I]Tyr8-Substance P (SP) from recombinant human NK1 receptors expressed in Chinese Hamster Ovary (CHO) cell membranes. The affinity values are expressed as negative logarithm of the inhibition constant (pKi) of displacer ligands.
For orientation: Scintillation proximity formats need no separation of bound from free tracer.

T1 sequence (P31645 whole entry): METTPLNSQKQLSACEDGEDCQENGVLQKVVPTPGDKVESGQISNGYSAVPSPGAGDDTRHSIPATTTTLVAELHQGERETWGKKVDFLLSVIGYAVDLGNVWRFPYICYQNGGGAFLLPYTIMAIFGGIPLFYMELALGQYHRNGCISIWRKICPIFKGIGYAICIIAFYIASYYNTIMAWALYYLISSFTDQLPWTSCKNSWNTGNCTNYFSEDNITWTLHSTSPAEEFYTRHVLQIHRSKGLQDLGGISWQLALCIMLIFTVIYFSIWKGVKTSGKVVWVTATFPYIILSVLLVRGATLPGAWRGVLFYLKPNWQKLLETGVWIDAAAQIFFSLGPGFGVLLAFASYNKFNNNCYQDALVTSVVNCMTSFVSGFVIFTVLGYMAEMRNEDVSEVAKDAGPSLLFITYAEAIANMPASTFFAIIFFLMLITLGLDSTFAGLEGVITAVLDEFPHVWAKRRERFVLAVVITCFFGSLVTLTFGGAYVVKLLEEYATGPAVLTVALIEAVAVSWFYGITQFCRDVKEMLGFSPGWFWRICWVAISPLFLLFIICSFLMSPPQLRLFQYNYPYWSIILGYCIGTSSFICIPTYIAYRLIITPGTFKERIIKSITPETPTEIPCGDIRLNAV
T2 sequence (P25103 whole entry): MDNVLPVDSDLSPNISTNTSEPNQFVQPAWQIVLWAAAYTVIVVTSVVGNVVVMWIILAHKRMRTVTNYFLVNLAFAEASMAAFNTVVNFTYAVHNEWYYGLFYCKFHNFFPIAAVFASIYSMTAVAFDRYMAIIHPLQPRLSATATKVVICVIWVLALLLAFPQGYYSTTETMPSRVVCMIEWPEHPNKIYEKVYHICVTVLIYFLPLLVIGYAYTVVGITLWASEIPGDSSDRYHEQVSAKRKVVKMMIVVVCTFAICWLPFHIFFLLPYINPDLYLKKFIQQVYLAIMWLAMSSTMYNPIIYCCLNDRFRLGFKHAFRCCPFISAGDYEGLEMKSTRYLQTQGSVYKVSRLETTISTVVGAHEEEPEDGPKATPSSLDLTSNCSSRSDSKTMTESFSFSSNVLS

Regarding `O=C1C(C2(c3ccc(F)cc3)CCNCC2)=CCN1Cc1cc(Cl)cc(Cl)c1` [Example 1, 1-[(3,5-Dichlorophenyl)methyl]-3-[4-(4-fluorophenyl)-4-piperidinyl]-1,5-dihydro-2H-Pyrrol-2-one], the Ki was 1.26 to 9.12 nM in test [1] and 2.24 to 8.51 nM in test [2].

The term pKi denotes −log10 of the Ki, conventionally taken in molar units. As for `CC(c1cc(Cl)cc(Cl)c1)N1CC=C(C2(c3ccc(F)cc3)CCN(C)CC2)C1=O` (single isomer, unassigned) [Example 11, 1-[1-(3,5-Dichlorophenyl)ethyl]-3-[4-(4-fluorophenyl)-1-methyl-4-piperidinyl]-1,5-dihydro-2H-pyrrol-2-one], the pKi in test [1] was 8.04 to 8.90. Also, the Ki in test [2] is 2.24 to 8.51 nM.

For `CN1CCC(C2=CCN(Cc3cc(Cl)cc(Cl)c3)C2=O)(c2ccc(F)cc2)CC1` [Example 3, 1-[(3,5-Dichlorophenyl)methyl]-3-[4-(4-fluorophenyl)-1-methyl-4-piperidinyl]-1,5-dihydro-2H-pyrrol-2-one], the negative logarithm of the Ki (pKi) in test [1] is 8.04 to 8.90. In test [2], the Ki was 2.24 to 8.51 nM.

Turning to `C[C@@H](c1cc(Cl)cc2ccccc12)N1CC=C(C2(c3ccc(F)cc3)CCNCC2)C1=O` [Example 6, 1-[(1S)-1-(3-Chloro-1-naphthalenyl)ethyl]-3-[4-(4-fluorophenyl)-4-piperidinyl]-1,5-dihydro-2H-pyrrol-2-one], the figures for the Ki in test [1] and in test [2] were 1.26 to 9.12 nM and 2.24 to 8.51 nM, respectively.

Turning to `C[C@H](c1cc(Cl)cc2ccccc12)N1CC=C(C2(c3ccc(F)cc3)CCN(C)CC2)C1=O` [Example 15, 1-[(1R)-1-(3-Chloro-1-naphthalenyl)ethyl]-3-[4-(4-fluorophenyl)-1-methyl-4-piperidinyl]-1,5-dihydro-2H-pyrrol-2-one], the pKi in test [1] was 8.04 to 8.90. Besides, the Ki in test [2] was 2.24 to 8.51 nM.

With `CC(c1cc(Cl)cc(Cl)c1)N1CC=C(C2(c3ccc(F)cc3)CCNCC2)C1=O` (single isomer, unassigned) [Example 5, 1-[1-(3,5-Dichlorophenyl)ethyl]-3-[4-(4-fluorophenyl)-4-piperidinyl]-1,5-dihydro-2H-pyrrol-2-one], the Ki was 1.26 to 9.12 nM in test [1] and 2.24 to 8.51 nM in test [2].

`CN1CCC(C2=CCN(Cc3cc(C#N)cc4ccccc34)C2=O)(c2ccc(F)cc2)CC1` [Example 16, 4-({3-[4-(4-Fluorophenyl)-1-methyl-4-piperidinyl]-2-oxo-2,5-dihydro-1H-pyrrol-1-yl}methyl)-2-naphthalenecarbonitrile]: the negative logarithm of the Ki (pKi) in test [1] was 8.04 to 8.90. In test [2], the Ki was 2.24 to 8.51 nM.
